# Data taken from the Deep4Chem optical property database.
# Assay: solvent given as SMILES
structure (smiles),measurement,setting,value
CC(C)(C)c1cc2ccc3c(N(c4ccc(F)cc4)c4ccc(F)cc4)cc(N(c4ccc(F)cc4)c4ccc(F)cc4)c4ccc(c1)c2c34,absorption maximum,in ClCCl,414 nm
Cc1ccc(-c2cc(-c3ccccc3)c3c(N)nc(N4CCCC4)c(C#N)c3n2)cc1,absorption maximum,in CC#N,412 nm
same,absorption maximum,in CC(C)=O,414 nm
same,absorption maximum,in CC(C)O,414 nm
same,absorption maximum,in CO,414 nm
same,absorption maximum,in ClC(Cl)Cl,420 nm
same,absorption maximum,in ClCCl,420 nm
same,absorption maximum,in c1ccccc1,424 nm
O=S(=O)(c1ccccc1)c1ccc(-c2ccc3c(c2)c2cc(-c4ccc(S(=O)(=O)c5ccccc5)cc4)ccc2n3-c2ccccc2)cc1,absorption maximum,in CCCCCC,343 nm
same,absorption maximum,in CN(C)C=O,345 nm
same,absorption maximum,in CO,343 nm
same,absorption maximum,in Cc1ccccc1,340 nm
same,absorption maximum,in ClCCl,343 nm
COCCOCCOCCNc1cc2c3c(c(NCCOCCOCCOC)cc4c3c1C(=O)N(CCOCCOCCOC)C4=O)C(=O)N(CCOCCOCCOC)C2=O,absorption maximum,in CO,605 nm
same,absorption maximum,in ClC(Cl)Cl,610 nm
same,absorption maximum,in O,623 nm
Cc1ccc(-n2c(-c3ccc(C(F)(F)F)cc3)nc(-c3ccccc3O)c2-c2ccccc2O)cc1,absorption maximum,in C1CCOC1,314 nm
same,absorption maximum,in CC(C)O,309 nm
same,absorption maximum,in CCCCCC,314 nm
same,absorption maximum,in CO,309 nm
same,absorption maximum,in CS(C)=O,313 nm
same,absorption maximum,in ClCCl,311 nm
Fc1ccc(C2=NC(c3ccccc3)C(N(c3ccccc3)c3ccccc3)S2)cc1 (configuration not stated),absorption maximum,in ClC(Cl)Cl,363 nm
CC1=C(c2ccccc2)C2=Cc3c(-c4ccccc4)c(C)c(C)n3[B-](F)(F)[N+]2=C1C,absorption maximum,in CC#N,538 nm
CCOc1cccc2c1O[B-](F)(F)[n+]1c3c(c4c(c1-2)-c1ccccc1CC4)-c1ccccc1CC3,absorption maximum,in ClCCl,343 nm
CCCCN1C(=O)c2cccc3c(N(C)C)ccc(c23)C1=O,absorption maximum,in CC#N,416 nm
same,absorption maximum,in CS(C)=O,428 nm
same,absorption maximum,in Cc1ccccc1,403 nm
F[B-]1(F)n2c(Oc3ccccc3)c(Cl)c(Br)c2C(Oc2ccccc2)=C2C(Br)=C(Cl)C(Oc3ccccc3)=[N+]21,absorption maximum,in ClCCl,533 nm
N#CSC1=CC2=C(c3ccccc3)c3ccc(SC#N)n3[B-](F)(F)[N+]2=C1N1CCOCC1,absorption maximum,in CCCCCC,560 nm
same,absorption maximum,in CCOC(C)=O,554 nm
same,absorption maximum,in ClCCl,558 nm
C[C@]12SC(=O)C=C1c1nc(-c3ccc(O)cc3)[nH]c1C1=CC(=O)S[C@@]12C,absorption maximum,in CC#N,470 nm
CCN(CC)c1ccc2c(c1)oc(=O)c1c(C)nc3c(c(-c4ccccc4)nn3C)c12,absorption maximum,in ClCCl,408 nm
Cc1ccc2c(c1)C1(c3ccccc3-c3ccccc31)c1cc(C)ccc1N2c1ccc2c(c1)Sc1ccccc1P2(=S)c1ccccc1 (configuration not stated),absorption maximum,in Cc1ccccc1,311.25 nm
c1ccc2[nH]ncc2c1,absorption maximum,in C1CCCCC1,294 nm
c1ccc(-c2oc(-c3ccccc3)c3ccccc23)cc1,absorption maximum,in C1CCCCC1,411 nm
same,absorption maximum,in C1CCOC1,413 nm
same,absorption maximum,in CC#N,411 nm
same,absorption maximum,in CCO,411 nm
same,absorption maximum,in CN(C)C=O,415 nm
same,absorption maximum,in CS(C)=O,416 nm
same,absorption maximum,in Cc1ccccc1,414 nm
C=CCOc1nnc(OCCC(F)(F)C(F)(F)C(F)(F)C(F)(F)C(F)(F)C(F)(F)C(F)(F)C(F)(F)F)nn1,absorption maximum,in ClCCl,526 nm
same,absorption maximum,in OCC(F)(F)F,512 nm
COc1ccc(-c2nc3ccccc3nc2-c2ccc(OC)cc2)cc1,absorption maximum,in ClC(Cl)Cl,368 nm
CC(C)(C)c1ccc2oc3nc4oc5cc(-n6c7ccccc7c7ccccc76)ccc5c4cc3c2c1,absorption maximum,in ClC(Cl)Cl,347 nm
Cc1cc(C)c(B(c2ccc(N(c3ccccc3)c3ccccc3)cc2)c2c(C)cc(C)cc2C)c(C)c1,absorption maximum,in Cc1ccccc1,380 nm
C[Si](C)(C)c1sc([Si](C)(C)C)c2c1sc1c3sc4c(sc5c4sc4c([Si](C)(C)C)sc([Si](C)(C)C)c45)c3sc12,absorption maximum,in ClC(Cl)Cl,405 nm
Fc1cc(F)c2cc3cccc[n+]3cc2c1,absorption maximum,in O,407 nm
COc1ccc(-c2cnc(C#Cc3ccccc3)o2)cc1OC,absorption maximum,in ClCCl,330 nm
F[B-]1(F)n2c(ccc2N2CCOCC2)C(c2ccccc2)=C2C=CC(N3CCOCC3)=[N+]21,absorption maximum,in CC#N,566 nm
same,absorption maximum,in CCCCCC,573 nm
same,absorption maximum,in CCOC(C)=O,570 nm
same,absorption maximum,in CO,561 nm
same,absorption maximum,in ClCCl,572 nm
COc1cc(C(=O)c2c(C)c3ccc4cccc5c6cccc7ccc2c(c76)c3c45)cc(OC)c1OC,absorption maximum,in ClCCl,391 nm
COc1ccc(N2c3c(sc4ccccc34)Sc3sc4ccccc4c32)cc1,absorption maximum,in ClCCl,309 nm
CCCc1ccc(C#Cc2cc(C#Cc3ccc(CCC)cc3)c3ccc4c(C#Cc5ccc(N(C)C)cc5)cc(C#Cc5ccc(CCC)cc5)c5ccc2c3c54)cc1,absorption maximum,in ClCCl,473 nm
O=[N+]([O-])c1ccc(N/C=C/C=[NH+]c2ccc([N+](=O)[O-])cc2)cc1,absorption maximum,in CS(C)=O,388 nm
CCCCCCCCCCCCOc1cc2c3c(ccc4c5c(OCCCCCCCCCCCC)cc6c7c(ccc(c1c34)c75)C(=O)N(C1CCCCC1)C6=O)C(=O)N(C1CCCCC1)C2=O,absorption maximum,in ClC(Cl)Cl,570 nm
COc1ccc(-c2ccc(-c3ccccc3)cc2)cc1,absorption maximum,in C1CCCCC1,291 nm
c1ccc(-c2cc(-c3ccccc3)cc(-c3ccccc3)c2)cc1,absorption maximum,in C1COCCO1,250 nm
c1ccc2c(c1)oc1nc3oc4ccc(-n5c6ccccc6c6ccccc65)cc4c3cc12,absorption maximum,in ClC(Cl)Cl,346 nm
Cc1nnc(-c2cc(-c3nnc(C)o3)c(-n3c4ccccc4c4ccccc43)cc2-n2c3ccccc3c3ccccc32)o1,absorption maximum,in Cc1ccccc1,359 nm
c1ccc(-c2c3ccccc3c(-c3ccc4ccccc4c3)c3ccccc23)nc1,absorption maximum,in ClCCl,375 nm
O=c1oc2ccccc2cc1-c1cn2ccccc2n1,absorption maximum,in ClC(Cl)Cl,349 nm
CCN(CC)c1cc2sc3cc(N(CC)CC)c(F)cc3c(=O)c2cc1F,absorption maximum,in CCO,393 nm
CC(C)[Si](C#Cc1c2ccccc2c(C#Cc2c3ccccc3c(C#Cc3c4ccccc4c(C#Cc4c5ccccc5c(C#Cc5c6ccccc6c(C#C[Si](C(C)C)(C(C)C)C(C)C)c6ccccc56)c5ccccc45)c4ccccc34)c3ccccc23)c2ccccc12)(C(C)C)C(C)C,absorption maximum,in Cc1ccccc1,585 nm
COc1ccc(OC)c(C=O)c1,absorption maximum,in C1CCOC1,349 nm
same,absorption maximum,in C1COCCO1,348 nm
same,absorption maximum,in CC#N,349 nm
same,absorption maximum,in CC(C)=O,349 nm
same,absorption maximum,in CCCO,352 nm
same,absorption maximum,in CCO,352 nm
same,absorption maximum,in CN(C)C=O,351 nm
same,absorption maximum,in CN(C)P(=O)(N(C)C)N(C)C,352 nm
same,absorption maximum,in CNC=O,352 nm
same,absorption maximum,in CO,352 nm
same,absorption maximum,in CS(C)=O,353 nm
same,absorption maximum,in ClC(Cl)Cl,352 nm
same,absorption maximum,in NC=O,356 nm
CCC1(CC)c2ccccc2-c2c1c1c(c3c2C(CC)(CC)c2cc(N(c4ccccc4)c4ccccc4)ccc2-3)C(CC)(CC)c2ccccc2-1,absorption maximum,in C1CCOC1,356 nm
same,absorption maximum,in CC#N,353 nm
same,absorption maximum,in CC(C)=O,354 nm
same,absorption maximum,in CCCCCC,356 nm
same,absorption maximum,in Cc1ccccc1,360 nm
COc1ccc(-c2csc(/C(C#N)=C/c3ccc(Cl)cc3)n2)cc1,absorption maximum,in CC#N,376 nm
CCCCCCCCCc1c2ccccc2cc2c1oc1c3c(c4ccccc4c12)-c1c(c2oc4cc5ccccc5cc4c2c2ccccc12)OCO3,absorption maximum,in C1CCOC1,397 nm
CN(C)c1ccc(C#CC2=C3CCc4ccccc4C3=[O+][B-](F)(F)O2)cc1,absorption maximum,in ClCCl,514 nm
CCC1=C(C)C2=C(/C=C/c3ccc([N+](=O)[O-])cc3)c3c(C)c(CC)c(/C=C/c4ccc(OC)cc4)n3[B-](F)(F)[N+]2=C1/C=C/c1ccc(OC)cc1,absorption maximum,in ClCCl,666 nm
FC(F)(F)c1ccc(/C=C2\C=C(c3ccccc3)C=C2c2ccccc2)cc1,absorption maximum,in C1CCOC1,450 nm
Cc1cc(C)c(C2=C3C=c4c(c5ccccc5c5ccccc45)=[N+]3[B-](F)(F)n3c2cc2c4ccccc4c4ccccc4c23)c(C)c1,absorption maximum,in C1CCCCC1,674 nm
same,absorption maximum,in C1CCOC1,673 nm
same,absorption maximum,in CC#N,666 nm
same,absorption maximum,in Cc1ccccc1,680 nm
same,absorption maximum,in ClCCl,673 nm
Cc1ccc(/C=C/c2nc3ccccc3s2)cc1,absorption maximum,in C1CCCCC1,345 nm
same,absorption maximum,in CO,345 nm
COc1ccc(C2=[N+]3C(=Nc4c(-c5ccccc5)c(Br)c(-c5ccc(OC)cc5)n4[B-]3(F)F)C(c3ccccc3)=C2Br)cc1,absorption maximum,in ClC(Cl)Cl,679 nm
same,absorption maximum,in ClCCl,679 nm
Cc1cc(C)c(B(c2ccccc2N2c3ccccc3Oc3ccccc32)c2c(C)cc(C)cc2C)c(C)c1,absorption maximum,in Cc1ccccc1,445 nm
COc1ccc(-n2nc(C#N)c(N3CCN(c4ccccn4)CC3)n2)cc1,absorption maximum,in CC#N,321 nm
CN(C)c1ccc(C2=CC3=C(c4ccc(C=O)cc4)[C@H]4c5ccccc5[C@]3(S2)c2ccccc24)cc1,absorption maximum,in ClCCl,449 nm
CCCC1(CCC)c2cc(-c3ccc(C(C)(C)CC)cc3)ccc2-c2ccc(-c3ccc(C(C)(C)CC)cc3)cc21,absorption maximum,in C1CCCCC1,328 nm
CC(C)(C)c1ccc(-c2nc3c4ccccc4c4ccccc4c3n2-c2ccc(C(C)(C)C)cc2)cc1,absorption maximum,in C1CCOC1,314 nm
same,absorption maximum,in C1COCCO1,315 nm
same,absorption maximum,in CC#N,310 nm
same,absorption maximum,in CCCCCC,315 nm
same,absorption maximum,in CCCCOCCCC,315 nm
same,absorption maximum,in CCN(CC)CC,316 nm
same,absorption maximum,in CCOC(C)=O,313 nm
same,absorption maximum,in CCOCC,313 nm
same,absorption maximum,in CN(C)C=O,313 nm
same,absorption maximum,in Cc1ccccc1,316 nm
same,absorption maximum,in ClC=C(Cl)Cl,316 nm
same,absorption maximum,in ClCCl,313 nm
COc1cc(OC)cc(C(=O)OCc2c(C)c(=O)n3c(=O)c(C)c(C)n23)c1,absorption maximum,in CCO,378 nm
CN(C)c1ccc(-c2c(/C=C3/C=Cc4ccccc4N3Cc3ccccc3)c(=O)c2=O)cc1,absorption maximum,in C1CCCCC1,358 nm
same,absorption maximum,in Cc1ccccc1,364 nm
same,absorption maximum,in ClCCl,511 nm
C(#Cc1cccs1)c1ncc(-c2ccccc2)o1,absorption maximum,in ClCCl,325 nm
Nc1nc2ccccc2[n+]([O-])n1,absorption maximum,in CC#N,407 nm
same,absorption maximum,in O,415 nm
CCCCN(CCCC)c1ccc(/C=C/c2ccc3nc(-c4ccccc4)c(/C=C/c4ccc(N(C)C)cc4)nc3c2)cc1,absorption maximum,in C1COCCO1,458 nm
same,absorption maximum,in CC#N,462 nm
same,absorption maximum,in ClCCl,468 nm
